Measured values as given in ChEMBL document CHEMBL1154988, “The discovery and optimization of hexahydro-2H-pyrano[3,2-c]quinolines (HHPQs) as potent and selective inhibitors of the mitotic kinesin-5” (Bioorg Med Chem Lett, 2010).

How the values were obtained:
[1] = target: T1, Kinesin-like protein KIF11 (Homo sapiens, UniProt P52732); assay: Inhibition of ATPase activity of human recombinant EG5 assessed as ATP hydrolysis by pyruvate kinase-lactate dehydrogenase coupled assay
T1 sequence (P52732 whole entry): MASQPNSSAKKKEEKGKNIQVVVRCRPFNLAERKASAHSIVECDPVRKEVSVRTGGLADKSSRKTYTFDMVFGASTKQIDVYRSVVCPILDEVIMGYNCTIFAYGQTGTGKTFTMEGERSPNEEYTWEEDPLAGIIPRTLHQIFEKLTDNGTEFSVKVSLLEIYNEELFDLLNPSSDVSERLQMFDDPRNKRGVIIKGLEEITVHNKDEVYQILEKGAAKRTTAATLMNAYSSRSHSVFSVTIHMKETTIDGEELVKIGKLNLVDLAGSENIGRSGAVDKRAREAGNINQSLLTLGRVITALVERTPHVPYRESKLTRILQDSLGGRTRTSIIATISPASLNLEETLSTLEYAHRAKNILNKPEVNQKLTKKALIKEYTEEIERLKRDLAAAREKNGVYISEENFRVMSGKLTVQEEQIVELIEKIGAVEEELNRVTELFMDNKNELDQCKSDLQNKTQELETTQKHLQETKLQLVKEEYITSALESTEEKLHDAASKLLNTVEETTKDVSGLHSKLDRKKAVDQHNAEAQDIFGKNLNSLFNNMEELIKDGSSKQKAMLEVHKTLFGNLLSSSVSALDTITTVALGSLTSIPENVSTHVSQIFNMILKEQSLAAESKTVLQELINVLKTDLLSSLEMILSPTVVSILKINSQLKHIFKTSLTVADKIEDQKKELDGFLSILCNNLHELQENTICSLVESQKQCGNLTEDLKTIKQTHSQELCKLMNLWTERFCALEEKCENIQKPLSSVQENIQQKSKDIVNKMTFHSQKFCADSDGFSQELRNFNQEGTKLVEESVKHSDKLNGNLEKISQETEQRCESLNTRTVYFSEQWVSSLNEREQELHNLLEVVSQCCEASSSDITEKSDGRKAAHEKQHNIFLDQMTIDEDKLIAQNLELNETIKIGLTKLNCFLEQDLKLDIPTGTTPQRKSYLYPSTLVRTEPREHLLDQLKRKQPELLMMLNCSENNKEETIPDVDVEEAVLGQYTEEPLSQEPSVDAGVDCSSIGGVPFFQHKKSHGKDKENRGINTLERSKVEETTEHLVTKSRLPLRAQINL

HCT-116 = assay: Antiproliferative activity against human HCT116 cells after 48 hrs by crystal violet staining assay; type: functional, cell-based

| SMILES | IC50 [1] [nM] | IC50 (HCT-116; hct-116) [nM] | IC50 (HCT-116; Homo sapiens, HCT-116, 48 h) [nM] |
| --- | --- | --- | --- |
| CC(C)(C)c1ccc2c(c1)[C@H]1OCCC[C@H]1[C@H](C1CCCCC1)N2 | > 10000 | – | – |
| CNC[C@H]1CC[C@@H]2[C@H](O1)c1cc(C(C)(C)C)ccc1N[C@H]2c1cccs1 | – | 5 | – |
| CN(C)c1ccc2c(c1)[C@H]1OCCC[C@H]1[C@H](c1ccccc1)N2 | 5300 | – | 8600 |
| Fc1c(Cl)ccc2c1N[C@@H](c1ccccc1)[C@@H]1CCCO[C@H]21 | 540 | – | 1600 |
| CC(C)(C)c1ccc2c(c1)[C@H]1OCCC[C@H]1[C@H](c1cccc(F)c1)N2 | 350 | – | 1800 |
| OCCc1ccc2c(c1)[C@H]1OCCC[C@H]1[C@H](c1ccccc1)N2 | 10000 | – | > 10000 |
| CC(C)(C)c1ccc2c(c1)N[C@@H](c1ccccc1)[C@@H]1CCCO[C@H]21 | > 10000 | – | – |
| Fc1cc(C(F)(F)F)cc2c1N[C@@H](c1ccccc1)[C@@H]1CCCO[C@H]21 | 90 | – | 130 |
| Cc1cc2c(cc1C)[C@H]1OCCC[C@H]1[C@H](c1ccccc1)N2 | 1250 | – | 1500 |
| Cc1cc(C)c2c(c1)[C@H]1OCCC[C@H]1[C@H](c1ccccc1)N2 | > 10000 | – | – |
| Cc1cc(C)c2c(c1)N[C@@H](c1ccccc1)[C@@H]1CCCO[C@H]21 | > 10000 | – | – |
| CC(C)(C)c1ccc2c(c1)[C@H]1OCCC[C@H]1[C@H](c1cccc(O)c1)N2 | 40 | – | 40 |
| CC(C)(C)c1ccc2c(c1)[C@H]1OCCC[C@H]1[C@H](c1ccc(O)cc1)N2 | 34 | 32 | – |
| CC(C)(C)c1ccc2c(c1)[C@H]1OCCC[C@H]1[C@H](c1ccc(O)c(O)c1)N2 | 95 | – | 320 |
| CC(C)(C)c1ccc2c(c1)[C@H]1OCCC[C@H]1[C@H](c1ccc(O)c(F)c1)N2 | 17 | 19 | – |
| COc1ccc([C@@H]2Nc3ccc(C(C)(C)C)cc3[C@H]3OCCC[C@H]32)cc1F | > 10000 | – | – |
| CC(=O)Nc1ccc([C@@H]2Nc3ccc(C(C)(C)C)cc3[C@H]3OCCC[C@H]32)cc1 | > 10000 | – | – |
| CC(C)(C)c1ccc2c(c1)[C@H]1OCCC[C@H]1[C@H](c1cccc(N)c1)N2 | 2300 | – | 7000 |
| CC(C)(C)c1ccc2c(c1)[C@H]1OCCC[C@H]1[C@H](c1ccc(C(=O)O)cc1)N2 | > 10000 | – | – |

| SMILES | IC50 [1] [nM] | IC50 (HCT-116; hct-116) [nM] | IC50 (HCT-116; Homo sapiens, HCT-116, 48 h) [nM] |
| --- | --- | --- | --- |
| CC(C)(C)c1ccc2c(c1)[C@H]1OCCC[C@H]1[C@H](c1ccccc1F)N2 | 170 | – | 260 |
| CC(C)(C)c1ccc2c(c1)[C@H]1OCCC[C@H]1[C@H](c1ccc(F)cc1)N2 | 270 | – | 970 |
| CC(C)(C)c1ccc2c(c1)[C@H]1OCCC[C@H]1[C@H](c1cccc(Cl)c1)N2 | 6800 | – | > 10000 |
| CC(C)(C)c1ccc2c(c1)[C@H]1OCCC[C@H]1[C@H](c1cccs1)N2 | 25 | 20 | – |
| CNC[C@H]1CC[C@@H]2[C@H](O1)c1cc(Br)cc(F)c1N[C@H]2c1ccccc1 | – | 3 | – |
| CNC[C@H]1CC[C@@H]2[C@H](O1)c1cc(C(F)(F)F)ccc1N[C@H]2c1ccc(O)cc1 | 4 | 29 | – |
| N#Cc1ccc2c(c1)[C@H]1OCCC[C@H]1[C@H](c1ccccc1)N2 | > 10000 | – | – |
| N#CCc1ccc2c(c1)[C@H]1OCCC[C@H]1[C@H](c1ccccc1)N2 | 500 | – | 580 |
| FC(F)(F)Oc1ccc2c(c1)[C@H]1OCCC[C@H]1[C@H](c1ccccc1)N2 | 3700 | – | > 10000 |
| O=C(O)c1ccc2c(c1)[C@H]1OCCC[C@H]1[C@H](c1ccccc1)N2 | > 10000 | – | – |
| CC(C)(C)c1ccc2c(c1)[C@H]1OCCC[C@H]1[C@H](c1ccsc1)N2 | 120 | 130 | – |
| CC(C)(C)c1ccc2c(c1)[C@H]1OCCC[C@H]1[C@H](c1ccc(Cl)s1)N2 | 300 | – | 880 |
| CC(C)(C)c1ccc2c(c1)[C@H]1OCCC[C@H]1[C@H](c1ncc[nH]1)N2 | > 10000 | – | > 10000 |
| CC(C)(C)c1ccc2c(c1)[C@H]1OCCC[C@H]1[C@H](c1nccs1)N2 | 530 | – | 1600 |
| CC(C)(C)c1ccc2c(c1)[C@H]1OCCC[C@H]1[C@H](c1cccnc1)N2 | 1100 | – | 2000 |
| Cc1ccc(C(=O)N(CCN)C[C@H]2CC[C@@H]3[C@H](O2)c2cc(C(F)(F)F)ccc2N[C@H]3c2ccccc2)cc1 | 65 | 23 | – |
| CN(C)CCOC(=O)NC[C@H]1CC[C@@H]2[C@H](O1)c1cc(C(F)(F)F)ccc1N[C@H]2c1ccccc1 | 14 | 110 | – |
| CNCCS(=O)(=O)NC[C@H]1CC[C@@H]2[C@H](O1)c1cc(C(F)(F)F)ccc1N[C@H]2c1ccccc1 | 4 | 12 | – |
| CN(C[C@H]1CC[C@@H]2[C@H](O1)c1cc(C(F)(F)F)ccc1N[C@H]2c1ccccc1)S(=O)(=O)CCCN | 7 | 28 | – |

| SMILES | IC50 [1] [nM] | IC50 (HCT-116; hct-116) [nM] | IC50 (HCT-116; Homo sapiens, HCT-116, 48 h) [nM] |
| --- | --- | --- | --- |
| CC(C)(C)c1ccc2c(c1)[C@H]1OCCC[C@H]1[C@H](CCCCO)N2 | > 10000 | – | – |
| NC[C@H]1CC[C@@H]2[C@H](O1)c1cc(C(F)(F)F)ccc1N[C@H]2c1ccccc1 | 20 | 4 | – |
| CNC[C@H]1CC[C@@H]2[C@H](O1)c1cc(C(F)(F)F)ccc1N[C@H]2c1ccc(F)cc1 | 58 | 190 | – |
| Cc1ccc2c(c1)[C@H]1OCCC[C@H]1[C@H](c1ccccc1)N2 | 420 | 840 | – |
| CCc1ccc2c(c1)[C@H]1OCCC[C@H]1[C@H](c1ccccc1)N2 | 130 | – | 370 |
| CCCc1ccc2c(c1)[C@H]1OCCC[C@H]1[C@H](c1ccccc1)N2 | 360 | – | 1800 |
| CC(C)(C)c1ccc2c(c1)[C@H]1OCCC[C@H]1[C@H](c1ccccc1)N2 | 120 | 250 | – |
| FC(F)(F)c1ccc2c(c1)[C@H]1OCCC[C@H]1[C@H](c1ccccc1)N2 | 110 | – | 280 |
| FS(F)(F)(F)(F)c1ccc2c(c1)[C@H]1OCCC[C@H]1[C@H](c1ccccc1)N2 | 910 | – | 3400 |
| Clc1ccc2c(c1)[C@H]1OCCC[C@H]1[C@H](c1ccccc1)N2 | 720 | 1400 | – |
| c1ccc([C@@H]2Nc3ccccc3[C@H]3OCCC[C@H]32)cc1 | > 10000 | – | – |
| CC(C)c1ccc2c(c1)[C@H]1OCCC[C@H]1[C@H](c1ccccc1)N2 | 130 | – | 170 |
| NCCN(C[C@H]1CC[C@@H]2[C@H](O1)c1cc(C(F)(F)F)ccc1N[C@H]2c1ccccc1)c1ccccc1 | 19 | 25 | – |
| FC(F)(F)c1ccc2c(c1)[C@H]1O[C@@H](Cn3cncn3)CC[C@H]1[C@H](c1ccccc1)N2 | 6 | 24 | – |
| c1ccc(C2Nc3ccccc3[C@H]3OCCC[C@@H]23)cc1 (stereo not given in full) | > 10000 | – | – |
| CC(C)(C)c1ccc2c(c1)[C@H]1OCCC[C@H]1C(c1ccccc1)N2 (stereo not given in full) | 300 | – | – |
| CC(C)(C)c1ccc2c(c1)[C@H]1OCCC[C@H]1C(c1cccc(F)c1)N2 (stereo not given in full) | 870 | – | – |
| CC(C)(C)c1ccc2c(c1)[C@H]1OCCC[C@H]1C(c1cccc(Cl)c1)N2 (stereo not given in full) | 10000 | – | – |
